# Target: T1, chimeric human RORγ-Gal4 receptor (Homo sapiens, UniProt P51449)
# T1 sequence (P51449 269-508 limits assumed): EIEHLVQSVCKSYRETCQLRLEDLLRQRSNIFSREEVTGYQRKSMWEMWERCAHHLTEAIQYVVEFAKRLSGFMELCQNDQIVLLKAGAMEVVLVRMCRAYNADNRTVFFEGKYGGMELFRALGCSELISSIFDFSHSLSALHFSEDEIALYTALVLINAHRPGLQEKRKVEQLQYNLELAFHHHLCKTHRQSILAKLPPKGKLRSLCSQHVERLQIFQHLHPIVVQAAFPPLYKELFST
# Assay: transient transactivation assay (RORγ-Gal4 luciferase reporter)
# Format: cell-based
# Conditions: Cos-7 cells transfected with RORγ-Gal4 and 5Gal4 pGL3 TK Luc reporter; overnight incubation; T0901317 at 10^-5 M as reference; read-out: IC50
row,SMILES,IC50
1,"Cc1cn(C(=O)c2c(Cl)ccc(C(=O)N3CCC(CC(=O)O)CC3)c2Cl)c2c(C)cc(C(F)(F)F)cc12 [DJ, 2-(1-(2,4-dichloro-3-(3,7-dimethyl-5-(trifluoromethyl)-1H-indole-1-carbonyl)benzoyl)piperidin-4-yl)acetic acid]",< 100 nM
2,"Cc1cn(Cc2c(Cl)ccc(C(=O)N3CCC(O)CC3)c2Cl)c2c(C)cc(C#N)cc12 [DK, 1-(2,6-dichloro-3-(4-hydroxypiperidine-1-carbonyl)benzyl)-3,7-dimethyl-1H-indole-5-carbonitrile]",100 to 500 nM
3,"Cc1cn(Cc2c(Cl)ccc(C(=O)N3CCC(CC(=O)O)CC3)c2Cl)c2c(C)cc(C#N)cc12 [DL, 2-(1-(2,4-dichloro-3-((5-cyano-3,7-dimethyl-1H-indol-1-yl)methyl)benzoyl)piperidin-4-yl)acetic acid]",< 100 nM
4,"Cc1cn(C(=O)c2c(Cl)ccc(C(=O)N3CCC(O)CC3)c2Cl)c2c(C)cc(C#N)cc12 [DM, 1-(2,6-dichloro-3-(4-hydroxypiperidine-1-carbonyl)benzoyl)-3,7-dimethyl-1H-indole-5-carbonitrile]",100 to 500 nM
5,"Cc1cn(C(=O)c2c(Cl)ccc(C(=O)N3CCC(CC(=O)O)CC3)c2Cl)c2c(C)cc(C#N)cc12 [DN, 2-(1-(2,4-dichloro-3-(5-cyano-3,7-dimethyl-1H-indole-1-carbonyl)benzoyl)piperidin-4-yl)acetic acid]",< 100 nM
6,"Cc1cc(C(F)(F)F)nc2c1cc(Cc1c(Cl)ncc(C(=O)N3CCC(O)CC3)c1Cl)n2C [DO, (4,6-dichloro-5-((1,4-dimethyl-6-(trifluoromethyl)-1H-pyrrolo[2,3-b]pyridin-2-yl)methyl)pyridin-3-yl)(4-hydroxypiperidin-1-yl)methanone]",< 100 nM
7,"Cc1cc(OC(F)(F)F)cc2c1cc(Cc1c(Cl)ccc(C(=O)N3CCC(CC(=O)O)CC3)c1Cl)n2C [DP, 2-(1-(2,4-dichloro-3-((1,4-dimethyl-6-(trifluoromethoxy)-1H-indol-2-yl)methyl)benzoyl)piperidin-4-yl)acetic acid]",< 100 nM
8,"Cc1cc(OC(F)(F)F)cc2c1cc(Cc1c(Cl)ccc(C(=O)N3CCOCC3)c1Cl)n2C [DP-1, (2,4-dichloro-3-((1,4-dimethyl-6-(trifluoromethoxy)-1H-indol-2-yl)methyl)phenyl)(morpholino)methanone]",< 100 nM
9,"Cc1cc(OC(F)(F)F)cc2c1cc(Cc1c(Cl)ccc(C(=O)N3CC[C@H](C(=O)O)[C@H](C)C3)c1Cl)n2C [DP-2, (3S,4S)-1-(2,4-dichloro-3-((1,4-dimethyl-6-(trifluoromethoxy)-1H-indol-2-yl)methyl)benzoyl)-3-methylpiperidine-4-carboxylic acid]",< 100 nM
10,"Cc1cc(OC(F)(F)F)cc2c1cc(Cc1c(Cl)ccc(C(=O)N3CC[C@@H](C(=O)O)[C@@H](C)C3)c1Cl)n2C [DP-3, (3R,4R)-1-(2,4-dichloro-3-((1,4-dimethyl-6-(trifluoromethoxy)-1H-indol-2-yl)methyl)benzoyl)-3-methylpiperidine-4-carboxylic acid]",< 100 nM
11,"Cn1c(Cc2c(Cl)ccc(C(=O)N3CCOCC3)c2Cl)cc2c(Cl)cc(C#N)cc21 [DQ, 4-chloro-2-(2,6-dichloro-3-(morpholine-4-carbonyl)benzyl)-1-methyl-1H-indole-6-carbonitrile]",< 100 nM
12,Cc1cc(OC(F)(F)F)cc2c1c(Cc1c(Cl)ccc(C(=O)N3CCC(CC(=O)O)CC3)c1Cl)cn2C [DU1-1],< 100 nM
13,Cc1cc(OC(F)(F)F)cc2c1c(Cc1c(Cl)ccc(C(=O)N3CCC(C(=O)O)C(C)C3)c1Cl)cn2C (stereo not shown) [DU1-2],< 100 nM
14,"Cc1cc(OC(F)(F)F)cc2c1c(Cc1c(Cl)ccc(C(=O)N3CCC(C(=O)O)CC3)c1Cl)cn2C [DU, 1-[2,4-dichloro-3-[[1,4-dimethyl-6-(trifluoromethoxy)-1H-indol-3-yl]methyl]benzoyl]piperidine-4-carboxylic acid]",< 100 nM
15,"Cc1cc(C(F)(F)F)cc2c1c(Cc1c(Cl)ncc(C(=O)N3CCC(CC(=O)O)CC3)c1Cl)cn2C [DV, 2-[1-[4,6-dichloro-5-[[1,4-dimethyl-6-(trifluoromethyl)-1H-indol-3-yl]methyl]pyridine-3-carbonyl]-4-piperidyl]acetic acid]",< 100 nM
16,"Cc1cc(C(F)(F)F)cc2c1c(Cc1c(Cl)cnc(C(=O)N3CCC(CC(=O)O)CC3)c1Cl)cn2C [DW, 2-[1-[3,5-dichloro-4-[[1,4-dimethyl-6-(trifluoromethyl)-1H-indol-3-yl]methyl]pyridine-2-carbonyl]-4-piperidyl]acetic acid]",< 100 nM
17,"Cc1cc(OC(F)(F)F)cc2c1c(Cc1c(Cl)cnc(C(=O)N3CCC(CC(=O)O)CC3)c1Cl)cn2C [DX, 2-[1-[3,5-dichloro-4-[[1,4-dimethyl-6-(trifluoromethoxy)-1H-indol-3-yl]methyl]pyridine-2-carbonyl]-4-piperidyl]acetic acid]",< 100 nM
18,"Cc1cc(OC(F)(F)F)cc2c1c(Cc1c(Cl)ncc(C(=O)N3CCC(CC(=O)O)CC3)c1Cl)cn2C [DY, 2-[1-[4,6-dichloro-5-[[1,4-dimethyl-6-(trifluoromethoxy)-1H-indol-3-yl]methyl]pyridine-3-carbonyl]-4-piperidyl]acetic acid]",< 100 nM
19,"Cc1cc(C(F)(F)F)cc2occ(Cc3c(Cl)ccc(C(=O)N4CCC(CC(=O)O)CC4)c3Cl)c12 [DZ, 2-(1-(2,4-dichloro-3-((4-methyl-6-(trifluoromethyl)benzofuran-3-yl)methyl)benzoyl)piperidin-4-yl)acetic acid]",< 100 nM
20,"Cc1nn(C(=O)c2c(Cl)ccc(C(=O)N3CCC(CC(=O)O)CC3)c2Cl)c2c(C)cc(C(F)(F)F)cc12 [EA, 2-(1-(2,4-dichloro-3-(3,7-dimethyl-5-(trifluoromethyl)-1H-indazole-1-carbonyl)benzoyl)piperidin-4-yl)acetic acid]",< 100 nM
21,"Cc1cc(C(F)(F)F)cc2c(C)n(C(=O)c3c(Cl)ccc(C(=O)N4CCC(CC(=O)O)CC4)c3Cl)nc12 [EB, 2-(1-(2,4-dichloro-3-(3,7-dimethyl-5-(trifluoromethyl)-2H-indazole-2-carbonyl)benzoyl)piperidin-4-yl)acetic acid]",< 100 nM
22,"Cc1cc(C(F)(F)F)cc2cnn(Cc3c(Cl)ccc(C(=O)N4CCC(CC(=O)O)CC4)c3Cl)c12 [EC, 2-(1-(2,4-dichloro-3-((7-methyl-5-(trifluoromethyl)-1H-indazol-1-yl)methyl)benzoyl)piperidin-4-yl)acetic acid]",< 100 nM
23,"Cc1cc(C(F)(F)F)cc2cn(Cc3c(Cl)ccc(C(=O)N4CCC(CC(=O)O)CC4)c3Cl)nc12 [ED, 2-(1-(2,4-dichloro-3-((7-methyl-5-(trifluoromethyl)-2H-indazol-2-yl)methyl)benzoyl)piperidin-4-yl)acetic acid]",< 100 nM
24,"Cc1cc(C(F)(F)F)cc2c1c(Cc1c(Cl)ccc(C(=O)N3CCC(CC(=O)O)CC3)c1Cl)nn2C [EE, 2-(1-(2,4-dichloro-3-((1,4-dimethyl-6-(trifluoromethyl)-1H-indazol-3-yl)methyl)benzoyl)piperidin-4-yl)acetic acid]",< 100 nM
25,"Cc1nn(Cc2c(Cl)ccc(C(=O)N3CCC(CC(=O)O)CC3)c2Cl)c2ccc(C(F)(F)F)cc12 [EF, 2-(1-(2,4-dichloro-3-((3-methyl-5-(trifluoromethyl)-1H-indazol-1-yl)methyl)benzoyl)piperidin-4-yl)acetic acid]",< 100 nM

# — US10106501B2, “Nuclear receptor modulators” (AbbVie Inc., priority 2015, dated 2018)
